{"source": "patent US20250144050A1", "about": "“AMINOTHIOL-CONJUGATES, COMPOSITIONS, AND METHODS OF USE THEREOF” (THE BURLINGTON HC RESEARCH GROUP, INC., priority 2021, published 2025)", "key": {"[1]": {"system": "normal human mammary epithelial cells (NHMECs)", "experiment": "Growth of NHMEC strains after 48-hour exposure", "assay_type": "cell-based", "settings": "for average effect per unit dose (% growth÷exposure concentration) / average effect per unit dose: NHMECs; for growth relative to control cells: 48-hour; for cell growth as % of control cell values: highest drug level 500 μM", "source_text": "Normal human mammary epithelial cell (NHMEC) strains used to assess potential cytotoxicity of 4SP65/1LP65 were established from reduction mammoplasty tissue from a healthy donor (#M99005 or ‘Strain-1’) (Keshava et al., “Induction of CYP1A1 and CYP1B1 and Formation of Carcinogen-DNA Adducts in Normal Human Mammary Epithelial Cells Treated with Benzo[a]pyrene,” Cancer Lett. 221 (2): 213-24 (2005), which is hereby incorporated by reference in its entirety) or purchased from ATCC (Manassas, VA, USA; batch #70043304 or ‘Strain-2’) or Cell Applications (San Diego, CA, USA; lot #1669 or ‘Strain-3’). Human cancer cell lines including HCC38 (Cat #CRL2314™), MDA-MB-231 (Cat #HTB-26™), A549/ATCC (Cat #CL-185™), National Cancer Institute (NCI)-H460 (Cat #HTB177™), NCI-H1437 (Cat #CRL-5872™), NCI-H1975 (Cat #CRL-5908™), DU145 (Cat #HTB-81™), LNCaP (Cat #CRL-1740™), PC3 (Cat #CRL-1435™), PANC1 (Cat #CRL-1469™), SKOV3 (Cat #HTB-75™), and HL60 (Cat #CCL-240™), which were free of mycoplasma, were purchased from ATCC. HMESO1 (CLS Cell Lines Service GmbH, Cat #BHC11100791), PPMMill, and TOV21G cells (ATTC Cat #CRL-11730), obtained from Dr. Brian Cunniff, were verified to be Mycoplasma negative using the LookOutR Mycoplasma PCR Detection Kit (Sigma-Aldrich, Cat #MP0035) and to match previously annotated DNA fingerprints by the Vermont Integrative Genomics Resource DNA Analysis Facility.\nTo assess the effects of 4SP65 on the growth of normal epithelium, experiments were performed using NHMEC strains from three donors (Keshava et al., “Induction of CYP1A1 and CYP1B1 and Formation of Carcinogen-DNA Adducts in Normal Human Mammary Epithelial Cells Treated with Benzo[a]pyrene,” Cancer Lett. 221 (2): 213-24 (2005), which is hereby incorporated by reference in its entirety). Strain-1 NHMECs were plated at 5,000 cells/well in 24-well dishes and allowed to reach 50% confluence before treatment with 0-300 μM 4SP65 for 48 hours. Cell viability was determined using a hemocytometer and trypan blue exclusion assay. Two other NHMEC strains, exposed to 0-150 μM 4SP65 or 0-500 μM 1LP65, were handled in the same fashion except that viability of cells in 96-well plates was determined using CyQUANT dye."}, "Solubility testing": {"experiment": "Solubility testing", "assay_type": "physicochemical", "procedure": "The solubility of 4SP65 was tested in de-ionized water, PBS, DMSO, and RPMI or DMEM base medium with and without FBS. […] The difference in the starting weight of drug placed into solvent minus the weight of the residue after drying on a vacuum pump was considered to represent the amount of drug that went into solution. The amount of drug that was dissolved at a given time ranged from 40 to 61%, averaging 49.7±8.1% (SD). The weight of the 4SP65 in solution was then used for diluting the drug to concentrations of 200 or 400 μM in supplemented RPMI or DMEM/F12 medium for routine treatment of cells. The dried residue was not used in the in vitro drug efficacy studies. […] However, unintended topical entanglements between polymer chains of multi-arm PEG-thiol molecules without disulfide formation have been reported (Tang and Olsen, “Controlling Topological Entanglement in Engineered Protein Hydrogels with a Variety of Thiol Coupling Chemistries,” Front. Chem. 2:23 (2014), which is hereby incorporated by reference in its entirety). Aliquots of 4SP65 dissolved in FBS enriched medium has remained stable for >6 months while remnants of the original viscous polymer have maintained stability without any apparent loss of activity when stored for 60 months at −20° C.\nThe boc deprotected aminothiol conjugated to m-PEG6-thiol was dried on a vacuum pump overnight to yield a viscous oil that on analysis gave rise to spectra corresponding to 1LP65 as a di-trifluroacetic acid salt at a MW of 672.87 Da (FIG. 15), or a MW of 483 once dissolved in solution. As such, 1LP65 is soluble 100% DMSO or aqueous solution. However, the bulk of the product was dissolved at 40 mM in DMSO and stored in aliquots at −80° C. for future use once by further dilution in DMSO and then final dilution in medium for treatment of normal human epithelium and human cancer cell lines at working solutions of 4 mM or 400 μM drug. 1LP65 has maintained stability for six months in frozen aliquots but should be stable in DMSO at −80° C. for two to three years based upon recommended storage conditions for cystamine dihydrochloride (Selleck Chemical product information), an analogous 225 Da compound with a disulfide bond and amine groups like 1LP65."}}, "note": "Like-named read-outs stand apart in the source and are kept apart here."}
{"molecule": "4-star PEG-S-S-WR1065 [4SP65]", "values": [{"measurement": "average effect per unit dose (% growth÷exposure concentration)", "setting": "[1]; 9 μM", "result": 8.7}, {"measurement": "average effect per unit dose (% growth÷exposure concentration)", "setting": "[1]; 30 μM", "result": 1.70}, {"measurement": "average effect per unit dose (% growth÷exposure concentration)", "setting": "[1]; 90 μM", "result": 0.23}, {"measurement": "average effect per unit dose (% growth÷exposure concentration)", "setting": "[1]; 150 μM", "result": 0.058}, {"measurement": "growth compared to sham-exposed control cells", "setting": "[1]; Strain-1, 5 μM, 48 hours", "result": 336, "unit": "%"}, {"measurement": "growth compared to sham-exposed control cells", "setting": "[1]; Strain-1, 15 μM, 48 hours", "result": 286, "unit": "%"}, {"measurement": "growth as % of control cell growth", "setting": "[1]; Strain-1, 50 μM, 48 hours", "result": 68, "unit": "%"}, {"measurement": "growth pattern", "setting": "[1]; Strain-1, 150 μM, 48 hours", "result": "re-established a predominant pattern of growth enhancement"}, {"measurement": "IC50", "setting": "[1]; Strain-1 and Strain-2 NHMECs", "result": "could not be calculated or predicted"}, {"measurement": "GI50", "setting": "[1]; Strain-1 and Strain-2 of NHMECs", "result": "could not be calculated or predicted"}, {"measurement": "growth relative to control cells", "setting": "[1]; Strain-2 and Strain-3, 3 μM", "result": "162%±7%"}, {"measurement": "growth relative to control cells", "setting": "[1]; Strain-2 and Strain-3, 9 μM", "result": "78%±12%"}, {"measurement": "growth relative to control cells", "setting": "[1]; Strain-2 and Strain-3, 30 μM", "result": "52%±8%"}, {"measurement": "growth relative to control cells", "setting": "[1]; Strain-2 and Strain-3, 50 μM (so in the source)", "result": "21%±4%"}, {"measurement": "growth relative to control cells", "setting": "[1]; Strain-2 and Strain-3, 150 μM", "result": "8.7%±2%"}, {"measurement": "IC50", "setting": "[1]; Strain-3 cells, 48 hours, read-out: IC50", "result": "76 ± 14", "unit": "µM"}, {"measurement": "GI50", "setting": "[1]; strain 3 of NHMECs, read-out: GI50", "result": "41.4 ± 6.2", "unit": "µM"}, {"measurement": "highest level that could be tested based upon maximum solubility in aqueous medium", "setting": "Solubility testing; aqueous medium", "result": 150, "unit": "µM"}, {"measurement": "amount of drug that was dissolved, averaging (SD)", "setting": "Solubility testing; aqueous solvents/medium", "result": "49.7±8.1", "unit": "%"}, {"measurement": "solubility", "setting": "Solubility testing; de-ionized water, PBS, DMSO, RPMI or DMEM base medium with and without FBS", "result": "partially soluble in all media evaluated except DMSO"}, {"measurement": "concentration above which a hydrogel forms", "setting": "Solubility testing; in medium", "result": "above 300 micromolar"}]}
{"molecule": "COCCOCCOCCOCCOCCOCCSSCCNCCCN", "note": "[1LP65, m-PEG6-S-S-WR1065]", "values": [{"measurement": "cytotoxicity in NHMECs", "setting": "[1]; 500 μM", "result": "not cytotoxic"}, {"measurement": "IC50", "setting": "[1]; Homo sapiens, Epithelial cell, 48 h, Strain-2 cells, 48 hours, read-out: IC50", "result": "> 500", "unit": "µM"}, {"measurement": "IC50", "setting": "[1]; Homo sapiens, Epithelial cell, 48 h, Strain-3 cells, 48 hours, read-out: IC50", "result": 210, "unit": "µM"}, {"measurement": "IC50", "setting": "[1]; Homo sapiens, Epithelial cell, Strain-2 and Strain-3, read-out: IC50, averaging over strains", "result": "> 355", "unit": "µM"}, {"measurement": "average effect per unit dose (% growth÷exposure concentration)", "setting": "[1]; 90 μM", "result": 2.9}, {"measurement": "average effect per unit dose (% growth÷exposure concentration)", "setting": "[1]; 150 μM", "result": 0.31}, {"measurement": "average effect per unit dose", "setting": "[1]; 300 μM", "result": 0.06}, {"measurement": "average effect per unit dose", "setting": "[1]; 500 μM", "result": 0.03}, {"measurement": "cell growth as % of control cell values", "setting": "[1]; Strain-2, 48 hours", "result": 19.5, "unit": "%"}, {"measurement": "cell growth as % of control cell values", "setting": "[1]; Strain-3, 48 hours", "result": 12.5, "unit": "%"}, {"measurement": "solubility", "setting": "Solubility testing; 100% DMSO or aqueous solution", "result": "soluble"}]}
